Data reported in patent US11980596B2 (priority 2017, dated 2024).

Experiments:
[1] = system: P-gp, BCRP, OATP1B1, OATP1B3, MATE1, MATE2-K, OCT2, OAT1, OAT3; test: Transporter substrate and inhibition studies; settings: not told
rat liver cells = test: In vivo Comet assay; settings: intravenously-administered
adult subjects with TRD [2] = settings: post dose
Description: Blood pressure and pulse/heart rate measurements were assessed supine with a completely automated device. Manual techniques were used only if an automated device is not available. Blood pressure and pulse/heart rate measurements were preceded by at least 5 minutes of rest in a quiet setting without distractions (e.g., television, cell phones).
Descriptive statistics of temperature, pulse/heart rate, respiratory rate, pulse oximetry, and blood pressure (systolic and diastolic) (supine) values and changes from baseline were summarized at each scheduled time point. The percentage of subjects with values beyond clinically important limits were summarized.

adult female rats [3] = test: Single-dose neuronal toxicity study (neuronal vacuolation), intranasal esketamine (label); settings: rat, in vivo
adult subjects with TRD [4] = settings: post dose; remark: listed apart in the source
Description: The CADSS is an instrument for the measurement of present-state dissociative symptoms, and was administered to assess treatment-emergent dissociative symptoms. The CADSS consists of 23 subjective items, divided into 3 components: Depersonalization (Items 3 to 7, 20, and 23), derealization (Items 1, 2, 8 to 13, 16 to 19, and 21) and amnesia (Items 14, 15, and 22). Participant's responses were coded on a 5-point scale (0=not at all through to 4=extremely).
(§2) The Clinician Administered Dissociative States Scale (CADSS) was measured prior to the start of each dose, at 40 minutes, and 1.5 hours postdose.

subjects with TRD [5] = format: in vivo, human; settings: post dose
Description: Transient blood pressure increases peaked for the esketamine group at approximately 40 minutes post dose and returned closer to predose levels by 1.5 hours post dose.

[6] = Pharmacokinetics of intranasal esketamine in healthy subjects (Example 9)
Description: Blood samples (4 mL each) for determination of esketamine and noresketamine plasma concentrations were collected into the appropriate collection tube (e.g., Vacutainer®) at timepoints 0.00, 0.12, 0.20, 0.37, 0.53, 0.67, 0.83, 1.00, 1.25, 1.50, 2.00, 3.00, 4.00, 6.00, 9.00, 12.00, 18.00, and 24.00 h. The total amount of blood to be drawn for clinical laboratory tests and PK evaluations is approximately 327 mL.
Plasma samples were analyzed for esketamine and noresketamine concentrations using the validated, specific and sensitive liquid chromatography coupled to tandem mass spectrometry (LC-MS/MS) achiral method of Example 8.
Serial PK blood samples (4 mL each) were collected for a 24-hour period from each subject (Periods 1, 2, and 3). […] Statistical Methods 1.6.4.1. Sample Size
The following key parameters of esketamine and noresketamine in plasma were calculated using noncompartmental methods and actual sampling times: Cmax, tmax, AUClast, AUC∞, t1/2,λ, and λz.

subjects with TRD [7] = settings: IND or OP/MA phases; among the 76 subjects
From the text: The efficacy and safety analyses are based on the full (IND) analysis set and the full (OP/MA) analysis set. The full (IND) analysis set is defined as all subjects who receive at least 1 dose of intranasal study medication or 1 dose of oral antidepressant in the open-label IND phase (for direct-entry and transferred-entry non-responder subjects). The full (OP/MA) analysis is defined as all subjects who receive at least 1 dose of intranasal study medication or 1 dose of oral antidepressant in the OP/MA phase. Safety variables include cognition function over time, treatment-emergent adverse events (TEAEs), including TEAEs of special interest, vital signs over time, Clinician-Administered Dissociative Symptom Scale (CADDS) over time, and Modified Observer's Assessment of Alertness/Sedation (MOAA/S) score≤3.

adult female rats [8] = test: Second single dose neurotoxicity study (neuronal necrosis), intranasal esketamine (label); settings: 200-gram rat
adult subjects with TRD [9] = settings: post dose; remark: listed apart in the source
Description: The MOAA/S was used to measure treatment-emergent sedation, with correlation to levels of sedation defined by the American Society of Anesthesiologists (ASA) continuum. The MOAA/S scores range from 0=no response to painful stimulus (corresponds to ASA continuum for general anesthesia) to 5=readily responds to name spoken in normal tone (awake; corresponds to ASA continuum for minimal sedation).
On each intranasal dosing day, the MOAA/S was performed every 15 minutes from pre-dose to t=+1.5 hours post-dose. If the score was ≤3 at any time during the 1.5 hours post-dose interval, the MOAA/S was performed every 5 minutes until a score of 4 is reached (at which point a frequency of every 15 minutes can be resumed until t=+1.5 hours post dose). […] For subjects with a score of 4, the assessment was repeated every 15 minutes. […]
The Modified Observer's Assessment of Alertness/Sedation (MOAA/S) was used to measure treatment-emergent sedation with correlation to levels of sedation defined by the American Society of Anesthesiologists (ASA) continuum. The MOAA/S scores ranged from 0 (No response to painful stimulus; corresponds to ASA continuum for general anesthesia) to 5 (Readily responds to name spoken in normal tone [awake]; corresponding to ASA continuum for minimal sedation).

[10] = system: subjects with MDD at imminent risk for suicide; test: Study completion/withdrawal, double-blind phase ([…]2001); format: in vivo, human; settings: esketamine 84 mg; all randomized analysis set, N = 36
Description: Of the 68 subjects in the all randomized analysis set, 19 (27.9%) subjects discontinued from the double-blind phase. More subjects in the esketamine 84 mg group discontinued due to adverse events (5 subjects in the esketamine 84 mg group versus 1 subject in the placebo group) whereas more subjects in the placebo group discontinued due to lack of efficacy (4 subjects in the placebo group versus 1 subject in the esketamine 84 mg group).

[11] = Pharmacokinetics of esketamine nasal spray, 14 Phase 1 studies (Example 10); settings: young adult subjects
Description: The data herein was assembled from 14 Phase 1 studies; each Phase 1 study was performed similarly to the study outlined in Example 9 in which the PK of esketamine was assessed.

[12] = system: subjects with MDD at imminent risk for suicide; test: MADRS suicide item ([…]2001); format: in vivo, human; settings: 84 mg; Day 1: 4-hours postdose, Day 2 (DB), End Point (DB); two-sided level 0.20
From the text: • a. Changes from baseline to Day 2 and Day 25 for the MADRS total score • b. Changes from baseline to Day 1 4-hours postdose, Day 2 and Day 25 for the MADRS Suicide Item • c. Changes from baseline to Day 1 4-hours postdose, Day 2, and Day 25 for the clinical global judgment of suicide risk from the Suicide Ideation and Behavior Assessment Tool (SIBAT) • d. Sustained response (Onset of Clinical Response) defined as at least 50% reduction from baseline in MADRS total score with onset on Day 1 that is maintained through the end of the double-blind phase (Day 25) • e. Changes from baseline to Day 1 4-hours postdose, Day 2, and Day 25 for the Beck Scale for Suicidal Ideation (BSS) • f. Changes from baseline to Day 1 4-hours postdose and Day 25 for the Beck Hopelessness Scale
Results of the change from baseline over time for the suicide item from the MADRS assessment can be found in Attachment 1.

[13] = Pre- and postnatal study, intranasal esketamine, pregnant rats; format: in vivo, rat; settings: female, rat, in vivo, inhaled or intranasal; intranasal; pregnancy and lactation; read-out: NOAEL for maternal toxicity and decreased motor activity during the postweaning period
Description: (§1) This sensory/motor developmental measure was tested starting on postnatal day (PND) 9, and the effect normalized by PND 19 in treatment groups as compared with PND 14 for the majority of the control animals. There is no NOAEL for this delay in sensory/motor response observed in pups during the preweaning period.

pregnant rats and pups = test: as above; format: in vivo, rat
Description: as §1

[14] = system: elderly subjects with TRD; settings: post dose
Description: as §2

[15] = system: subjects with MDD at imminent risk for suicide; test: Beck Scale for Suicidal Ideation (BSS) ([…]2001); format: in vivo, human
Description: The BSS is a 21-item self-reported instrument to detect and measure the severity of suicidal ideation in adults and adolescents aged 17 years and older. The BSS total score represents the severity of suicide ideation, and it is calculated by summing the ratings of the first 19 items; the total score ranges from 0 to 38, with a higher score representing greater suicide ideation. Increasing scores reflect increases in suicidal risk.

[16] = esketamine 84 mg minus placebo, ANCOVA LOCF
[17] = esketamine 84 mg, LOCF, ITT, N = 34
[18] = esketamine 84 mg, LOCF, ITT, N = 34, negative change = improvement
[19] = esketamine 84 mg, predose Day 1, ITT, N = 34

**Q.** With `CN[C@]1(c2ccccc2Cl)CCCCC1=O` [esketamine, (S)-2-(2-chlorophenyl)-2-(methylamino)cyclohexanone] as the compound, how does the “Inhibition of P-gp, BCRP, OATP1B1, OATP1B3, MATE1, MATE2-K, OCT2, OAT1 or OAT3” value [1] read?
**A.** The value was “do not inhibit”.

**Q.** What about the “Substrate of P-gp, BCRP, OATP1B1 or OATP1B3” value [1] of the same compound?
**A.** The value was “not a substrate”.

**Q.** What about the Genotoxicity (rat liver cells) of the same compound?
**A.** The Genotoxicity was “devoid of genotoxic properties”.

**Q.** What about the “Blood pressure returned to normal range at” value (adult subjects with TRD [2]) of the same compound?
**A.** Its value is 90 min.

**Q.** What about the “Time of peak of transient blood pressure increases” value (adult subjects with TRD [2]) of the same compound?
**A.** The value was “approximately 40 minutes”.

**Q.** What about the “Safety margin to clinical exposure at the MRHD of 84 mg/day, AUC” value (adult female rats [3]) of the same compound?
**A.** Its value is 1.8 times.

**Q.** And the “Safety margin to clinical exposure at the MRHD of 84 mg/day, Cmax” value (adult female rats [3])?
**A.** The value was 4.5 times.

**Q.** And the “Dissociative and perceptual change symptoms (CADSS) resolved by” value (adult subjects with TRD [4])?
**A.** The value was ≤ 1.5 h.

**Q.** And the “Blood pressure returned closer to predose levels by” value (subjects with TRD [5])?
**A.** Its value is ≤ 1.5 h.

**Q.** And the “Time of peak of transient blood pressure increases” value (subjects with TRD [5])?
**A.** The value was “approximately 40 minutes”.

**Q.** What about the “Dose proportionality of mean plasma Cmax and AUC” value ([6]; 28-mg, 56-mg and 84-mg intranasal regimens) of the same compound?
**A.** Its value is “less than dose-proportional”.

**Q.** What about the “AUC (AUClast and AUC∞) variability” value ([6]; esketamine) of the same compound?
**A.** The value was 25.0% to 30.4.

**Q.** What about the “Cmax variability (percent coefficient of variation)” value ([6]; esketamine, across the 3 treatment groups) of the same compound?
**A.** Its value is 35.7% to 36.7.

**Q.** What about the “Subjects with an AE leading to discontinuation of intranasal esketamine considered related to esketamine” value (subjects with TRD [7]) of the same compound?
**A.** Its value is 51 subjects.

**Q.** And the “Highest dose equivalent with no findings of neuronal necrosis” value (adult female rats [8])?
**A.** Its value is 270 mg/kg.

**Q.** What about the “Sedation (MOAA/S) resolved by” value (adult subjects with TRD [9]) of the same compound?
**A.** Its value is ≤ 1.5 h.

**Q.** What about the “Withdrawn from double-blind phase: Lack of Efficacy” value [10] of the same compound?
**A.** Its value is 1 (2.8%) subjects (%).

**Q.** And the “Tmax, range of median values” ([11]; single dose esketamine nasal spray 28 mg, n = 64)?
**A.** The value was 19.8 to 40.2 min.

**Q.** What about the “Tmax, range of median values” ([11]; single dose esketamine nasal spray 56 mg, n = 86) of the same compound?
**A.** Its value is 30 to 46.2 min.

**Q.** What about the “Tmax, range of median values” ([11]; single dose esketamine nasal spray 84 mg, n = 167) of the same compound?
**A.** The value was 31.8 to 49.8 min.

**Q.** And the “MADRS suicide item: change from baseline vs placebo” value [12]?
**A.** The value was “Statistically significant differences favoring esketamine”.

**Q.** And the NOAEL [13]?
**A.** Its NOAEL is 4.5 mg/kg/day.

**Q.** And the “AUC exposure, multiple of the MRHD of 84 mg/day” value (“AUC exposure, multiple” for short) (pregnant rats and pups; 4.5 mg/kg/day intranasal)?
**A.** The value was 0.07 times.

**Q.** And the “AUC exposure, multiple” value (pregnant rats and pups; 15 mg/kg/day intranasal)?
**A.** Its value is 0.5 times.

**Q.** And the “AUC exposure, multiple” value (pregnant rats and pups; 45 mg/kg/day intranasal)?
**A.** The value was 0.7 times.

**Q.** And the “Dissociative and perceptual change symptoms (CADSS) resolved by” value [14]?
**A.** The value was ≤ 1.5 h.

**Q.** What about the “BSS total score: change vs placebo” value ([15]; 84 mg, Day 1: 4-hours postdose, Day 2 (DB), End Point (DB)) of the same compound?
**A.** Its value is “no statistically significant differences”.

**Q.** And the “BSS total score, change to Day 1 (DB): 4H, Diff. of LS Means (SE)” value [15, 16]?
**A.** Its value is −2.3 (2.29).

**Q.** What about the “BSS total score, change to Day 2 (DB), Diff. of LS Means (SE)” value [15, 16] of the same compound?
**A.** The value was −1.9 (2.30).

**Q.** What about the “BSS total score, change to End Point (DB), Diff. of LS Means (SE)” value [15, 16] of the same compound?
**A.** Its value is −1.7 (2.15).

**Q.** And the “BSS total score, Day 2 (DB), Median (Range)” value [15, 17]?
**A.** The value was 13.0 (0; 34).

**Q.** And the “BSS total score, End Point (DB), Mean (SD)” value [15, 17]?
**A.** The value was 4.7 (9.03).

**Q.** What about the “BSS total score, End Point (DB), Median (Range)” value [15, 17] of the same compound?
**A.** The value was 0.0 (0; 34).

**Q.** And the “BSS total score, Change from Baseline to Day 1 (DB): 4H, Median (Range)” value [15, 18]?
**A.** Its value is −8.0 (−33; 8).

**Q.** What about the “BSS total score, Change from Baseline to End Point (DB), Median (Range)” value [15, 18] of the same compound?
**A.** Its value is −21.0 (−33; 8).

**Q.** And the “BSS total score, Baseline (DB), Mean (SD)” value [15, 19]?
**A.** The value was 24.0 (5.45).

**Q.** What about the “BSS total score, Baseline (DB), Median (Range)” value [15, 19] of the same compound?
**A.** The value was 25.0 (8; 33).
